According to patent publication US5814634A, “Alkylenediamine derivative anti-ulcer drug and antibacterial drug” (Shiseido Co. Ltd., priority 1996, dated 1998):

What was measured:
in vitro = conditions: rabbit, gastric mucosal cells
stress ulcer = assay: WIS: Restraint and Water Immersion Stress-Induced Ulcer Inhibition Test; assay type: in vivo, rat (male Crj:SD or Slc:SD); conditions: for WIS: ulcer formation inhibitory rate: 100 mg/kg oral, rats, water immersion stress 7 hours; for effect (anti-ulcer tests): comparison of examples within compound group 1-1
Method: WIS: Restraint and Water Immersion Stress-Induced Ulcer Inhibition Test
The degree of inhibition of the stress ulcer formation is tested.
Male Crj:SD or Slc:SD rats (6 to 7-week-old) were fasted overnight, but allowed free access to water. Each group has 5 to 8 of these rats. The sample compound was dissolved or suspended in an aqueous solution of 0.3% sodium carboxymethylcellulose or 0.05% Tween 80 and then was orally administered (100 mg/10 ml/kg). To a control group, the vehicle was administered. 10 minutes later, the rats were placed in a stress cage and immersed to the level of xipfoid process in a water bath (21° C.) for 7 hours. At the end of the stress, the rats were sacrificed by inhalation of ether or carbon dioxide. Then, the stomach of each was removed, inflated by injecting 10 ml of 5% formalin neutral buffer solution, and immersed in 1% formalin neutral buffer solution for 30 minutes or more to be fixed. The stomach was incised along the greater curvature and then the length of each erosion in the glandular portion was determined under dissecting microscope. The sum of the length of erosions per stomach was defined as ulcer index (UI).
The effect obtained when 100 mg/kg of the sample compound had been administered was expressed as ulcer formation inhibitory rate (%) as follows: [formula] VOL, TAO: Acid Secretion Inhibition Test In Vivo i) Meaning

SMILES	cytotoxicity at 4 h, 100 µM (in vitro)	WIS: ulcer formation inhibitory rate (stress ulcer)	effect (anti-ulcer tests) (stress ulcer; result in words)	anti-ulcer effect (stress ulcer; result in words)
CC(C)=CCOc1ccc(C(=O)NCCN2CCCCC2)cc1 [Example 1]	1%	67%	–	–
CC(C)=CCC/C(C)=C/COc1ccccc1C(=O)NCCN1CCCCC1 [Example 5]	21%	78%	–	–
CC(C)=CCC/C(C)=C/CSc1ccccc1C(=O)NCCN1CCCCC1 [Example 7]	–	87%	the effect has been maintained	–
CC(C)=CCC/C(C)=C/COc1ccc(C(=O)NCCN2CCCC(C)(C)C2)cc1 [Example 9]	–	67%	a sufficient effect can be obtained	–
CC(C)=CCC/C(C)=C/COc1ccc(C(=O)NCCN2CCCCC2)c(OC/C=C(\C)CCC=C(C)C)c1 [Example 12]	38%	75%	–	–
CC(C)=CCOc1ccc(C(=O)NCCN2CCCCC2)cc1OCC=C(C)C [Example 15]	17%	89%	–	–
CC(C)=CCOc1ccc(C(=O)NCCN2CCCCC2)c(OCC=C(C)C)c1 [Example 16]	18%	59%	–	–
CC(C)=CCOc1cc(OCC=C(C)C)cc(C(=O)NCCN2CCCCC2)c1 [Example 18]	33%	40%	–	–
COc1cccc(C(=O)NCCN2CCCCC2)c1OC/C=C(\C)CCC=C(C)C [Example 21]	12%	68%	–	–
COc1ccc(C(=O)NCCN2CCCCC2)c(OC/C=C(\C)CCC=C(C)C)c1 [Example 22]	44%	39%	–	–
COc1cc(C(=O)NCCN2CCCCC2)cc(OC)c1OC/C=C(\C)CCC=C(C)C [Example 26]	17%	72%	–	more anti-ulcer effect
CC(C)=CCC/C(C)=C/COc1ccccc1C(=O)NCCN1CCOCC1 [Example 30]	–	68%	–	–
CC(C)=CCC/C(C)=C/COc1ccc(C(=O)NCCN2CCOCC2)cc1OC/C=C(\C)CCC=C(C)C [Example 36]	–	39%	–	–
CC(C)=CCC/C(C)=C/COc1ccc(C(=O)NCCN2CCOCC2)c(OC/C=C(\C)CCC=C(C)C)c1 [Example 37]	–	71%	–	–
CC(C)=CCC/C(C)=C/COc1cc(OC/C=C(\C)CCC=C(C)C)cc(C(=O)NCCN2CCOCC2)c1 [Example 38]	-12%	55%	–	–
COc1ccc(OC/C=C(\C)CCC=C(C)C)c(C(=O)NCCN2CCOCC2)c1 [Example 40]	–	70%	–	–
COc1cc(C(=O)NCCN2CCOCC2)cc(OC)c1OCC=C(C)C [Example 41]	–	39%	–	–
